Patent US20200131669A1, “CYCLIC PEPTIDE COMPOUND HAVING HIGH MEMBRANE PERMEABILITY, AND LIBRARY CONTAINING SAME” (Chugai Seiyaku Kabushiki Kaisha, priority 2017, published 2020)
Read-outs that look alike come from different tables or passages of the source. Starred links: 1 amine or outer side, 2 acyl side, 3 side chain; linkers in the order of their positions; H or OH if unused. Positions of bridges follow the written chain, without caps; N, C: chain ends. Non-standard residues stand in square brackets, D forms with d. Residues, ends and D or L forms follow the SMILES beside them. ξ: configuration not given here. *: point of attachment. X13 = O=C([C@@H]1C[C@H](N2CCC(F)(F)CC2)CN1[*:1])[*:2]; X4 = O=C([C@@H]1C[C@@H](N2CCC(F)(F)CC2)CN1[*:1])[*:2]; Phe(4-CHF2) = N[C@@H](Cc1ccc(C(F)F)cc1)C(=O)O; NMePhe(3-Cl) = CN[C@@H](Cc1cccc(Cl)c1)C(=O)O; X12 = CCCC[C@@H](O)[C@H](N[*:1])C(=O)[*:2]; NMeF = CN[C@@H](Cc1ccccc1)C(=O)O; NMeGABA = CN(CCCC(=O)[*:2])[*:1]; NMeI = CC[C@H](C)[C@H](NC)C(=O)O; ξThr(3R) = C[C@@H](O)C(N)C(=O)O; NMeL = CN[C@@H](CC(C)C)C(=O)O; NMeV = CN[C@H](C(=O)O)C(C)C; NMeAbu = CC[C@H](NC)C(=O)O; NMeA = CN[C@@H](C)C(=O)O; Piperidide = C1CCN(*)CC1; dAbu = CC[C@@H](N)C(=O)O; NBuGly = CCCCNCC(=O)O; Sar = CNCC(=O)O; tBu = CC(C)(C)*; CHF2 = FC(F)*

Assay: Caco-2 membrane permeability, improved method as used in the following Examples (96-well, 20 to 24 h preincubation)
Format: in vitro ADME
Conditions: human
Summary of the method: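 Caco-2 monolayers were grown three weeks and preincubated 20–24 h at 37 °C with compound in DMEM+FaSSIF (1% DMSO) apically. The assay then used compound in FaSSIF/HBSS (1% DMSO, pH 6.0) apically and HBSS with 4% BSA (pH 7.4) basally. Basal samples were taken at 180 min for LC/MS, and Papp (cm/sec) was calculated.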

[1] = Papp, Caco-2 membrane permeability, improved method, read-out: Caco-2

Structure (SMILES)	Papp A→B at 180 min (Caco-2, Caco-2) [×10⁻⁶ cm/s]	Papp A→B at 180 min [1] [×10⁻⁶ cm/s]
CC(C)C[C@H]1C(=O)N[C@@H](COC(C)(C)C)C(=O)N(C)[C@@H](Cc2ccccc2)C(=O)N(C)[C@@H](CC(C)C)C(=O)N[C@H](C(=O)N2CCCCC2)CC(=O)N2C[C@H](N3CCC(F)(F)CC3)C[C@H]2C(=O)N(C)[C@@H](Cc2cccc(Cl)c2)C(=O)N[C@@H](C(C)C)C(=O)N(C)[C@@H](C(C)C)C(=O)N[C@@H]([C@@H](C)O)C(=O)N(C)CC(=O)N1C [pd458] ([X4][NMePhe(3-Cl)]V[NMeV]T[Sar][NMeL]S(tBu)[NMeF][NMeL]D-Piperidide; lactam N-11)	1.2	–
CC[C@H]1NC(=O)C[C@@H](C(=O)N2CCCCC2)NC(=O)[C@H](CC(C)C)N(C)C(=O)[C@H](Cc2ccccc2)NC(=O)[C@@H]2C[C@@H](N3CCC(F)(F)CC3)CN2C(=O)[C@H]([C@@H](C)O)NC(=O)[C@H](CC(C)C)N(C)C(=O)[C@H](CC(C)C)NC(=O)[C@H](CC(C)C)N(C)C(=O)[C@H](COC(C)(C)C)NC(=O)[C@H](CC(C)C)N(C)C1=O [pd459] ([dAbu][NMeL]S(tBu)[NMeL]L[NMeL]T[X4]F[NMeL]D-Piperidide; lactam N-11)	1.6	–
CC(C)C[C@H]1C(=O)N(C)[C@@H](CC(C)C)C(=O)N(C)[C@@H](CC(C)C)C(=O)N(C)[C@@H](Cc2ccccc2)C(=O)N[C@@H]([C@@H](C)O)C(=O)N(C)[C@@H](Cc2ccccc2)C(=O)N(C)[C@@H](CC(C)C)C(=O)N2C[C@H](N3CCC(F)(F)CC3)C[C@H]2C(=O)N[C@H](C(=O)N2CCCCC2)CC(=O)N[C@@H](C(C)C)C(=O)NCC(=O)N1C [pd460] (VG[NMeL][NMeL][NMeL][NMeF]T[NMeF][NMeL][X4]D-Piperidide; lactam N-11)	1.2	–
CC(C)C[C@H]1C(=O)N[C@@H](COC(C)(C)C)C(=O)N(C)[C@@H](Cc2ccccc2)C(=O)N(C)[C@@H](CC(C)C)C(=O)N[C@H](C(=O)N2CCCCC2)CC(=O)N2C[C@@H](N3CCC(F)(F)CC3)C[C@H]2C(=O)N(C)[C@@H](Cc2cccc(Cl)c2)C(=O)N[C@@H](C(C)C)C(=O)N(C)[C@@H](C(C)C)C(=O)N[C@@H]([C@@H](C)O)C(=O)N(C)CC(=O)N1C [pd461] ([X13][NMePhe(3-Cl)]V[NMeV]T[Sar][NMeL]S(tBu)[NMeF][NMeL]D-Piperidide; lactam N-11)	1.4	–
CNC(=O)CC[C@@H]1NC(=O)[C@H](CC(C)C)N(C)C(=O)[C@H](C(C)C)N(C)C(=O)[C@H](Cc2ccccc2)NC(=O)[C@H](Cc2ccccc2)N(C)C(=O)[C@H](CC(C)C)N(C)C(=O)[C@H](CC(C)C)NC(=O)[C@H](CC(C)C)N(C)C(=O)C[C@@H](C(=O)N2CCCCC2)NC(=O)[C@H](CC(C)C)N(C)C(=O)CN(C)C1=O [pd463] ([NMeL]L[NMeL][NMeF]F[NMeV][NMeL]E(NHMe)[Sar][NMeL]D-Piperidide; lactam N-11)	–	1.2
CCCC[C@@H](O)[C@@H]1NC(=O)[C@H](CC(C)C)N(C)C(=O)[C@H](C)NC(=O)[C@H](Cc2ccccc2)N(C)C(=O)[C@@H](C(C)C)NC(=O)C[C@@H](C(=O)N2CCCCC2)NC(=O)[C@H](C)N(C)C(=O)[C@H](Cc2ccccc2)N(C)C(=O)[C@H](COC(C)(C)C)NC(=O)[C@H](CC(C)C)N(C)C(=O)CN(C)C1=O [pd467] ([dV][NMeF]A[NMeL][X12][Sar][NMeL]S(tBu)[NMeF][NMeA]D-Piperidide; lactam N-11)	1.4	–
CCCC[C@@H](O)[C@@H]1NC(=O)[C@H](Cc2ccccc2)N(C)C(=O)[C@H](Cc2ccccc2)N(C)C(=O)[C@H]([C@@H](C)CC)NC(=O)[C@H](CC(C)C)N(C)C(=O)CCCN(C)C(=O)C[C@@H](C(=O)N2CCCCC2)NC(=O)[C@H](CC(C)C)N(C)C(=O)[C@H](C)N(C)C(=O)[C@H]([C@@H](C)O)NC(=O)[C@H](CC(C)C)N(C)C1=O [pd468] ([NMeGABA][NMeL]I[NMeF][NMeF][X12][NMeL]T[NMeA][NMeL]D-Piperidide; lactam N-11)	1	–
CCCC[C@@H](O)[C@@H]1NC(=O)[C@H](CC(C)C)N(C)C(=O)[C@H](Cc2ccccc2)N(C)C(=O)[C@H](C)NC(=O)[C@H](Cc2ccccc2)N(C)C(=O)[C@H](CC(C)C)N(C)C(=O)[C@H](C(C)C)NC(=O)[C@H](C)N(C)C(=O)C[C@@H](C(=O)N2CCCCC2)NC(=O)[C@H](CC(C)C)N(C)C(=O)CN(C)C1=O [pd469] ([NMeA]V[NMeL][NMeF]A[NMeF][NMeL][X12][Sar][NMeL]D-Piperidide; lactam N-11)	2.5	–
CC(=O)NCCCC[C@@H]1NC(=O)[C@H](CC(C)C)N(C)C(=O)[C@H](CC(C)C)NC(=O)[C@H](Cc2ccccc2)N(C)C(=O)[C@@H](C(C)C)NC(=O)C[C@@H](C(=O)N2CCCCC2)NC(=O)[C@H](C(C)C)N(C)C(=O)[C@H](Cc2ccccc2)N(C)C(=O)[C@H](COC(C)(C)C)NC(=O)[C@H](CC(C)C)N(C)C(=O)CN(C)C1=O [pd470] ([dV][NMeF]L[NMeL]K(Ac)[Sar][NMeL]S(tBu)[NMeF][NMeV]D-Piperidide; lactam N-11)	2.1	–
CC(=O)NCCCC[C@@H]1NC(=O)[C@H](CC(C)C)N(C)C(=O)[C@H](CC(C)C)NC(=O)[C@H](Cc2ccccc2)N(C)C(=O)[C@@H](CC(C)C)NC(=O)C[C@@H](C(=O)N2CCCCC2)NC(=O)[C@H](C(C)C)N(C)C(=O)[C@H](Cc2ccccc2)N(C)C(=O)[C@H](COC(C)(C)C)NC(=O)[C@H](CC(C)C)N(C)C(=O)CN(C)C1=O [pd471] ([dL][NMeF]L[NMeL]K(Ac)[Sar][NMeL]S(tBu)[NMeF][NMeV]D-Piperidide; lactam N-11)	2.1	–
CC[C@H](C)[C@H]1C(=O)N[C@@H]([C@@H](C)O)C(=O)N(C)CC(=O)N(C)[C@@H](CC)C(=O)N[C@H](C(=O)N2CCCCC2)CC(=O)N(C)[C@@H](C)C(=O)N[C@@H](Cc2ccc(C(F)F)cc2)C(=O)N(C)[C@@H](CC(C)C)C(=O)N(C)[C@@H](Cc2ccccc2)C(=O)N[C@@H](CC(C)C)C(=O)N(C)[C@@H](CC(C)C)C(=O)N1C [pd473] ([NMeA][Phe(4-CHF2)][NMeL][NMeF]L[NMeL][NMeI]T[Sar][NMeAbu]D-Piperidide; lactam N-11)	–	4.5
CC(C)C[C@@H]1NC(=O)[C@H](C)N(C)C(=O)C[C@@H](C(=O)N2CCCCC2)NC(=O)[C@H](CC(C)C)N(C)C(=O)CN(C)C(=O)[C@H]([C@@H](C)O)NC(=O)[C@H](C(C)C)N(C)C(=O)[C@H](CC(C)C)N(C)C(=O)[C@H](Cc2ccc(C(F)F)cc2)NC(=O)[C@H](CC(C)C)N(C)C(=O)[C@H](CC(C)C)N(C)C1=O [pd474] ([NMeA]L[NMeL][NMeL][Phe(4-CHF2)][NMeL][NMeV]T[Sar][NMeL]D-Piperidide; lactam N-11)	4.5	–
CC[C@H](C)[C@@H]1NC(=O)[C@H](CC(C)C)N(C)C(=O)CN(C)C(=O)C[C@@H](C(=O)N2CCCCC2)NC(=O)[C@H](C(C)C)N(C)C(=O)[C@H](Cc2ccc(C(F)F)cc2)NC(=O)[C@H](CC(C)C)N(C)C(=O)[C@H](Cc2ccccc2)N(C)C(=O)CN(C)C(=O)[C@H]([C@@H](C)O)NC(=O)[C@H](CC(C)C)N(C)C1=O [pd475] ([Sar][NMeL]I[NMeL]T[Sar][NMeF][NMeL][Phe(4-CHF2)][NMeV]D-Piperidide; lactam N-11)	4.2	–
CC(C)C[C@@H]1NC(=O)C[C@@H](C(=O)N2CCCCC2)NC(=O)[C@H](CC(C)C)N(C)C(=O)[C@H](CC(C)C)N(C)C(=O)[C@H](Cc2ccc(OC(F)F)cc2)NC(=O)[C@H](C)N(C)C(=O)CN(C)C(=O)[C@H]([C@@H](C)O)NC(=O)[C@H](CC(C)C)N(C)C(=O)[C@H](C(C)C)NC(=O)[C@H](Cc2ccccc2)N(C)C1=O [pd477] (L[NMeF]V[NMeL]T[Sar][NMeA]Y(CHF2)[NMeL][NMeL]D-Piperidide; lactam N-11)	2.2	–
CC(C)C[C@H]1C(=O)N[C@@H](Cc2ccc(OC(F)F)cc2)C(=O)N(C)[C@@H](CC(C)C)C(=O)N(C)[C@@H](Cc2ccccc2)C(=O)N[C@@H](COC(C)(C)C)C(=O)N(C)[C@@H](CC(C)C)C(=O)NC([C@@H](C)O)C(=O)N(C)[C@@H](C)C(=O)N(C)[C@@H](CC(C)C)C(=O)N[C@@H](C(=O)N2CCCCC2)CC(=O)N(C)CCCC(=O)N1C (stereo partly drawn) [pd478] ([NMeGABA][NMeL]Y(CHF2)[NMeL][NMeF]S(tBu)[NMeL][ξThr(3R)][NMeA][NMeL][dD]-Piperidide; lactam N-11)	1.3	–
CCCCN1CC(=O)N(C)[C@@H](C)C(=O)N[C@H](C(=O)N2CCCCC2)CC(=O)N(C)[C@@H](C)C(=O)N[C@@H](Cc2ccc(OC(F)F)cc2)C(=O)N(C)[C@@H](CC(C)C)C(=O)N(C)[C@@H](Cc2ccccc2)C(=O)N[C@@H](CC(C)C)C(=O)N(C)[C@@H](CC(C)C)C(=O)N(C)[C@@H]([C@@H](C)CC)C(=O)N[C@@H]([C@@H](C)O)C1=O [pd479] ([NMeA]Y(CHF2)[NMeL][NMeF]L[NMeL][NMeI]T[NBuGly][NMeA]D-Piperidide; lactam N-11)	1	–
CC[C@H](C)[C@H]1C(=O)N[C@@H]([C@@H](C)O)C(=O)N(C)CC(=O)N(C)[C@@H](CC(C)C)C(=O)N[C@@H](C(=O)N2CCCCC2)CC(=O)N(C)[C@@H](C)C(=O)N[C@@H](CC(C)C)C(=O)N(C)[C@@H](CC(C)C)C(=O)N(C)[C@@H](CC(C)C)C(=O)N[C@@H](Cc2ccc(OC(F)F)cc2)C(=O)N(C)[C@@H](C)C(=O)N1C [pd480] ([NMeA]L[NMeL][NMeL]Y(CHF2)[NMeA][NMeI]T[Sar][NMeL][dD]-Piperidide; lactam N-11)	5	–
CC[C@H](C)[C@@H]1NC(=O)[C@H](CC(C)C)N(C)C(=O)CN(C)C(=O)C[C@@H](C(=O)N2CCCCC2)NC(=O)[C@H](C(C)C)N(C)C(=O)[C@H](Cc2ccc(OC(F)F)cc2)NC(=O)[C@H](CC(C)C)N(C)C(=O)[C@H](Cc2ccccc2)N(C)C(=O)CN(C)C(=O)[C@H]([C@@H](C)O)NC(=O)[C@H](CC(C)C)N(C)C1=O [pd481] ([Sar][NMeL]I[NMeL]T[Sar][NMeF][NMeL]Y(CHF2)[NMeV]D-Piperidide; lactam N-11)	3.8	–
